Assay results as given in US20230310441A1, “TREATMENT FOR SCHIZOPHRENIA” (TAKEDA PHARMACEUTICAL COMPANY, priority 2020, published 2023).
Entries after “also recorded” stand apart in the source; their conditions may differ. Where two headings read alike, the source gives them in different places.

What was measured:
[1] = Phase 1 FIH study: plasma pharmacokinetics in healthy participants; format: in vivo, human; details: for Tmax / Cmax / AUC(0-t) / AUC / Vd/F: human, plasma; for Vd/F: read-out: Vz/F (mean)
Procedure: Part 1 was a double-blind, SRD study in healthy adults, utilizing an alternate panel design (cohorts 1, 2) and sequential panel design (cohorts 3-5). Cohorts 1 and 2 were part of a two-period, alternating-panel, double-blind study of Compound (I) administered as an oral suspension (5 mg, 10 mg, 20 mg, or 40 mg) or matched placebo, with a washout period of at least 7 days between treatment periods. Cohorts 3-5 were part of a sequential-panel, double-blind study to evaluate the SRDs of Compound (I) (80, 120, or 160 mg, respectively) or matched placebo. Although planned, all subsequent doses after the dose of 80 mg were determined based on emerging safety, tolerability, and PK data from the preceding cohorts.
In Part 2, participants received either placebo on all dosing days or a loading dose of Compound (I) on Day 1 and a maintenance dose of half the initial dose on Days 8, 15 and 22, administered as an oral suspension. Baseline measurements were obtained on Day −2, and study-specific measurements were obtained following oral dose administrations on Days 1, 8, 15, and 22.
Part 3 was a randomized, open-label, single-dose, parallel design study to evaluate the bioavailability of a Compound (I) tablet formulation relative to a Compound (I) oral suspension formulation and the effect of food on the PK in healthy participants. The immediate release tablet contained mannitol, microcrystalline cellulose, and other commonly used excipients. Participants were randomized 1:1 to receive a single 40 mg dose of Compound (I) as a tablet after either 10 h overnight fast, or 30 min after beginning ingestion of a high-fat, high-calorie breakfast.
Participants were required to remain in the study unit for an additional 48 h post-dose for safety and PK assessments with follow-up visits on Day 4-5 and on Day 17-21. Blood samples were collected over 96 h post-dose to measure the plasma concentrations of Compound (I).
Plasma and urine concentrations of Compound (I) and urine concentrations of cortisol and 6β-hydroxycortisol were measured by high performance liquid chromatography with tandem mass spectrometry. One 4 mL blood sample was collected per scheduled assessment. For participants receiving placebo, blood samples were analyzed only at pre-dose and around the time Cmax occurred (as emerging from the measurements of the first dose group) to ensure that no additional participants could have been on active treatment. Serial urine samples were collected for Part 1 cohorts 1-5 and Part 2 cohorts 1-4. Urine samples for participants receiving placebo were not analyzed. Urine samples were collected for the determination of cortisol and 6β-hydroxycortisol for Part 2 cohorts 1-4 and for all patients in Part 4. Samples for participants randomized to placebo were analyzed for these parameters.
Pharmacokinetic parameters were determined from the concentration-time profiles for all evaluable participants. Actual sampling times were used in all computations. pharmacokinetic parameters were calculated using non-compartmental analysis using Phoenix WinNonLin v8.0 or SAS v 9.4.

[2] = Separate single dose oral study: half-life in rats; details: rat, in vivo; single dose oral administration of 5-15 mg/kg
Source text: The mean t1/2z for Compound (I) reflects the prolonged half-life of Compound (I) in humans. […] In that study, the mean human half-life of Compound (I) (approximately 11 days) was substantially higher than the 2-4 hr mean half-life observed in rats and dogs.

[3] = Part 3, single oral 40 mg tablet
[4] = healthy, oral, 40/20 mg, Day 22, N 6
[5] = healthy, oral, 80/40 mg, Day 22, N 6
[6] = healthy, oral, 120/60 mg, Day 22, N 6
[7] = healthy, oral, 160/80 mg, Day 22, N 6
[8] = po, healthy, oral, 40/20 mg, Day 22, N 6
[9] = po, healthy, oral, 80/40 mg, Day 22, N 6
[10] = po, healthy, oral, 120/60 mg, Day 22, N 6
[11] = po, healthy, oral, 160/80 mg, Day 22, N 6

Question: For `C[C@H](NC(=O)Cn1nnc2ccccc2c1=O)c1ccc(OC(F)(F)F)cc1` [Compound (I), (S)-2-(4-oxobenzo[d][1,2,3]triazin-3(4H)-yl)-N-(1-(4-(trifluoromethoxy)phenyl)ethyl)acetamide], which “mean t1/2z” value ([1]; Part 1 SRD, 20-160 mg dose range) is on record?
Answer: 210 to 296 h

Question: What about the “mean t1/2z at steady state” value ([1]; Part 2 MRD) of the same compound?
Answer: 170 to 302 h

Question: What about the “dose proportionality of systemic exposure at steady state” value ([1]; Part 2 MRD, Day 22) of the same compound?
Answer: increased approximately dose proportionally

Question: What about the “ratio for AUC96, tablet under fasted and fed conditions” value [1, 3] of the same compound?
Answer: ~0.942

Question: And the “ratio for Cmax, tablet under fasted and fed conditions” value [1, 3]?
Answer: approximately 0.841

Question: What about the “food effect on systemic exposure” value ([1]; Part 3, tablet, fasted vs high-fat, high-calorie meal) of the same compound?
Answer: no meaningful food effect on systemic exposure; also recorded: minimal food effect

Question: What about the “steady-state mean t1/2z” value ([1]; healthy participants (comparison for Part 4)) of the same compound?
Answer: 11.3 days

Question: What about the “CL/F (mean)” value [1, 4] of the same compound?
Answer: 334.6 mL/h

Question: What about the “Cav,ss (mean)” value [1, 4] of the same compound?
Answer: 393.8 ng/mL

Question: And the “Ctrough (mean)” value [1, 4]?
Answer: 274.2 ng/mL

Question: What about the “t1/2z (mean)” value [1, 4] of the same compound?
Answer: 12.48 days

Question: What about the “CL/F (mean)” value [1, 5] of the same compound?
Answer: 281.9 mL/h

Question: What about the “Cav,ss (mean)” value [1, 5] of the same compound?
Answer: 889.3 ng/mL

Question: What about the “Ctrough (mean)” value [1, 5] of the same compound?
Answer: 621.3 ng/mL

Question: What about the “t1/2z (mean)” value [1, 5] of the same compound?
Answer: 12.57 days

Question: What about the “CL/F (mean)” value [1, 6] of the same compound?
Answer: 299.1 mL/h

Question: And the “Cav,ss (mean)” value [1, 6]?
Answer: 1206.6 ng/mL

Question: And the “Ctrough (mean)” value [1, 6]?
Answer: 862.5 ng/mL

Question: What about the “t1/2z (mean)” value [1, 6] of the same compound?
Answer: 7.071 days

Question: And the “CL/F (mean)” value [1, 7]?
Answer: 284.6 mL/h

Question: What about the “Cav,ss (mean)” value [1, 7] of the same compound?
Answer: 1751.1 ng/mL

Question: And the “Ctrough (mean)” value [1, 7]?
Answer: 1209.0 ng/mL

Question: What about the “t1/2z (mean)” value [1, 7] of the same compound?
Answer: 11.28 days

Question: And the “saturation of plasma PK” value ([1]; highest dose level tested)?
Answer: Saturation of plasma PK was observed at 160 mg

Question: What about the Tmax ([1]; oral, 40 mg, Part 3, tablet formulation, fasted and fed states, read-out: median tmax) of the same compound?
Answer: 2 h

Question: What about the Tmax ([1]; oral, 120 mg, Part 1 SRD, 120 mg (secondary peak in some participants), read-out: median tmax) of the same compound?
Answer: 13 h

Question: What about the Tmax ([1]; oral, 160 mg, Part 1 SRD, 160 mg (secondary peak in some participants), read-out: median tmax) of the same compound?
Answer: 13.5 h

Question: What about the Tmax ([1]; oral, Part 1 SRD, dose range 5-80 mg, read-out: median tmax) of the same compound?
Answer: 0.99 to 3 h

Question: And the Cmax ([1]; oral, Part 2 MRD, 40/20 mg, up to 168 h post-dose, read-out: Mean Cmax (SD))?
Answer: 550 ng/mL

Question: What about the Cmax ([1]; oral, Part 2 MRD, 80/40 mg, up to 168 h post-dose, read-out: Mean Cmax (SD)) of the same compound?
Answer: 880 ng/mL

Question: What about the Cmax ([1]; oral, Part 2 MRD, 120/60 mg, up to 168 h post-dose, read-out: Mean Cmax (SD)) of the same compound?
Answer: 1260 ng/mL

Question: And the Cmax ([1]; oral, Part 2 MRD, 160/80 mg, up to 168 h post-dose, read-out: Mean Cmax (SD))?
Answer: 1760 ng/mL

Question: What about the Tmax ([1]; oral, Part 2 MRD, read-out: median tmax) of the same compound?
Answer: 1.75 to 3 h

Question: And the Tmax ([1]; oral, healthy participants (comparison for Part 4), read-out: median tmax)?
Answer: 3 h

Question: What about the Cmax ([1]; po, 5 mg, Part 1 SRD, Cohort 1, 5 mg oral suspension, fasted, up to 96 h post-dose, read-out: Mean Cmax (SD)) of the same compound?
Answer: 140 ng/mL

Question: What about the Cmax ([1]; po, 10 mg, Part 1 SRD, Cohort 2, 10 mg oral suspension, fasted, up to 96 h post-dose, read-out: Mean Cmax (SD)) of the same compound?
Answer: 193 ng/mL

Question: And the Cmax ([1]; po, 80 mg, Part 1 SRD, Cohort 3, 80 mg oral suspension, fasted, up to 168 h post-dose, read-out: Mean Cmax (SD))?
Answer: 910 ng/mL

Question: And the Cmax ([1]; po, 120 mg, Part 1 SRD, Cohort 4, 120 mg oral suspension, fasted, up to 168 h post-dose, read-out: Mean Cmax (SD))?
Answer: 1200 ng/mL

Question: What about the Cmax ([1]; po, 160 mg, Part 1 SRD, Cohort 5, 160 mg oral suspension, fasted, up to 168 h post-dose, read-out: Mean Cmax (SD)) of the same compound?
Answer: 1120 ng/mL

Question: And the AUC(0-t) [1, 8]?
Answer: 191 µg·h/mL

Question: And the AUC ([1]; po, healthy, oral, 40/20 mg, Day 22, N 6, read-out: AUC24 (mean))?
Answer: 12000 ng·h/mL

Question: And the AUC ([1]; po, healthy, oral, 40/20 mg, Day 22, N 6, read-out: AUC96 (mean))?
Answer: 42200 ng·h/mL

Question: What about the AUC ([1]; po, healthy, oral, 40/20 mg, Day 22, N 6, read-out: AUCτ (mean)) of the same compound?
Answer: 66200 ng·h/mL

Question: And the Cmax ([1]; po, healthy, oral, 40/20 mg, Day 22, N 6, read-out: Cmax (mean))?
Answer: 698 ng/mL

Question: And the Vd/F [1, 8]?
Answer: 112 L

Question: What about the Tmax ([1]; po, healthy, oral, 40/20 mg, Day 22, N 6, read-out: tmax (median)) of the same compound?
Answer: 1.75 h

Question: And the AUC(0-t) [1, 9]?
Answer: 421 µg·h/mL

Question: And the AUC ([1]; po, healthy, oral, 80/40 mg, Day 22, N 6, read-out: AUC24 (mean))?
Answer: 24400 ng·h/mL

Question: What about the AUC ([1]; po, healthy, oral, 80/40 mg, Day 22, N 6, read-out: AUC96 (mean)) of the same compound?
Answer: 92700 ng·h/mL

Question: What about the AUC ([1]; po, healthy, oral, 80/40 mg, Day 22, N 6, read-out: AUCτ (mean)) of the same compound?
Answer: 149000 ng·h/mL

Question: And the Cmax ([1]; po, healthy, oral, 80/40 mg, Day 22, N 6, read-out: Cmax (mean))?
Answer: 1250 ng/mL

Question: What about the Vd/F [1, 9] of the same compound?
Answer: 123 L

Question: And the Tmax ([1]; po, healthy, oral, 80/40 mg, Day 22, N 6, read-out: tmax (median))?
Answer: 2 h

Question: What about the AUC(0-t) [1, 10] of the same compound?
Answer: 407 µg·h/mL

Question: What about the AUC ([1]; po, healthy, oral, 120/60 mg, Day 22, N 6, read-out: AUC24 (mean)) of the same compound?
Answer: 35900 ng·h/mL

Question: What about the AUC ([1]; po, healthy, oral, 120/60 mg, Day 22, N 6, read-out: AUC96 (mean)) of the same compound?
Answer: 134000 ng·h/mL

Question: What about the AUC ([1]; po, healthy, oral, 120/60 mg, Day 22, N 6, read-out: AUCτ (mean)) of the same compound?
Answer: 203000 ng·h/mL

Question: What about the Cmax ([1]; po, healthy, oral, 120/60 mg, Day 22, N 6, read-out: Cmax (mean)) of the same compound?
Answer: 1740 ng/mL

Question: And the Vd/F [1, 10]?
Answer: 73 L

Question: And the Tmax ([1]; po, healthy, oral, 120/60 mg, Day 22, N 6, read-out: tmax (median))?
Answer: 3 h

Question: And the AUC(0-t) [1, 11]?
Answer: 841 µg·h/mL

Question: What about the AUC ([1]; po, healthy, oral, 160/80 mg, Day 22, N 6, read-out: AUC24 (mean)) of the same compound?
Answer: 47400 ng·h/mL

Question: What about the AUC ([1]; po, healthy, oral, 160/80 mg, Day 22, N 6, read-out: AUC96 (mean)) of the same compound?
Answer: 181000 ng·h/mL

Question: And the AUC ([1]; po, healthy, oral, 160/80 mg, Day 22, N 6, read-out: AUCτ (mean))?
Answer: 294000 ng·h/mL

Question: And the Cmax ([1]; po, healthy, oral, 160/80 mg, Day 22, N 6, read-out: Cmax (mean))?
Answer: 2410 ng/mL

Question: What about the Vd/F [1, 11] of the same compound?
Answer: 103 L

Question: What about the Tmax ([1]; po, healthy, oral, 160/80 mg, Day 22, N 6, read-out: tmax (median)) of the same compound?
Answer: 3 h

Question: And the Tmax ([1]; po, oral suspension (comparison for Part 3), read-out: median tmax)?
Answer: 1.82 h

Question: And the Tmax ([1]; po, single and repeated oral administration, healthy and schizophrenia patients, read-out: tmax)?
Answer: 0.99 to 3 h

Question: What about the absorption ([1]; single and repeated oral administration, healthy volunteers and patients with stable schizophrenia) of the same compound?
Answer: rapidly absorbed

Question: What about the “dose proportionality of Cmax and AUC” value ([1]; single oral doses 5-160 mg, healthy) of the same compound?
Answer: increased less than dose proportionally

Question: And the half-life [2]?
Answer: 120 to 240 min
